The format of data set [1] is in vivo, human.
For the next data set, the target named is human CYP1A2 (Homo sapiens, UniProt P05177). Kind of data set: Phe inhibition of human CYP1A2, P450-Glo assay. It counts as biochemical.
In data set [2] the test system is Salmonella strains TA100, TA 97a, TA98 and TA102. The settings on record: cited from earlier work.
Where [3] appears, read: [14C]-BaP metabolite in human plasma, 0-48 h, BaP + Phe dose, mean ± SD.
The mark [4] stands for this setting: [14C]-BaP metabolite in human plasma, 0-48 h, BaP only dose, mean ± SD.
[5] abbreviates: [14C]-BaP metabolite in human plasma, BaP + Phe dose, mean ± SD.
[6] abbreviates: [14C]-BaP metabolite in human plasma, BaP only dose, mean ± SD.

Like-named read-outs stand apart in the source and are kept apart here.

Sequence of human CYP1A2 (P05177 whole entry): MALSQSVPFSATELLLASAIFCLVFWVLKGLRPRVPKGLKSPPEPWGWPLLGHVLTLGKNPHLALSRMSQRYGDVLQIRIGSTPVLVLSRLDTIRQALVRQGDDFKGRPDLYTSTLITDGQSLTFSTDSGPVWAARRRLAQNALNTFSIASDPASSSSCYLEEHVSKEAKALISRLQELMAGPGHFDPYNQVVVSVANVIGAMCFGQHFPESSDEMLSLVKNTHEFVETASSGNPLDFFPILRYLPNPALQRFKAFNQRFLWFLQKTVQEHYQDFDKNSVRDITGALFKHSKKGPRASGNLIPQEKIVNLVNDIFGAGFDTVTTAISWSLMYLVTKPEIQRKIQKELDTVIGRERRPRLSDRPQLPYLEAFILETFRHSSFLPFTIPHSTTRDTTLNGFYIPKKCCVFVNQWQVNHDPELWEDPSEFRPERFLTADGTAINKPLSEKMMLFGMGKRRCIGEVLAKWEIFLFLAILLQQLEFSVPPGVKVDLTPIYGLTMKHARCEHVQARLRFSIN

With `O[C@H]1C=Cc2c(cc3ccc4cccc5ccc2c3c45)[C@@H]1O` (racemic) [7,8-dihydrodiol, (±) trans-benzo[a]pyrene-7,8-dihydrodiol], the AUC in data set [1] (setting [3]) turned out to be 10.53 ± 9.26 fg BaP/mL×h. Also, in data set [1] (setting [4]), the AUC is 28.04 ± 34.04 fg BaP/mL×h. In data set [1] (setting [5]), the “AUC(0,∞)” value is recorded as 10.53 ± 9.26 fg BaP/mL×h; the Cmax was determined as 2.54 ± 2.07 fg BaP/mL; the T1/2 was determined as 2.25 ± 0.55 h; the Tmax (in general, the time at which the peak concentration occurs) is 2.3 ± 1.2 h. Also, in data set [1] (setting [6]), the “AUC(0,∞)” value is given as 28.04 ± 34.04 fg BaP/mL×h, the Cmax is 4.12 ± 3.04 fg BaP/mL, the T1/2 came to 4.72 ± 4.18 h and the Tmax came to 1.7 ± 0.8 h.
For the molecule `Oc1ccc2ccc3c4ccccc4cc4ccc1c2c43` [3-OH], the AUC in data set [1] (setting [3]) is listed as 5.90 ± 4.33 fg BaP/mL×h. The AUC in data set [1] (setting [4]) is on record as 9.99 ± 7.43 fg BaP/mL×h. Also, in data set [1] (setting [5]), the “AUC(0,∞)” value worked out at 5.90 ± 4.33 fg BaP/mL×h, the Cmax is recorded as 2.00 ± 1.03 fg BaP/mL, the T1/2 was 1.59 ± 0.36 h and the time to peak (Tmax) was found to be 2.2 ± 0.8 h. Besides, in data set [1] (setting [6]), the “AUC(0,∞)” value is 9.99 ± 7.43 fg BaP/mL×h, the Cmax came out at 4.85 ± 3.31 fg BaP/mL, the T1/2 was found to be 1.85 ± 0.56 h and the Tmax came out at 1.7 ± 0.8 h.
Take `Oc1ccc2cc3ccc4cccc5ccc(c2c1)c3c45` [9-OH]: in data set [1] (setting [3]), the AUC came out at 0.74 ± 0.82 fg BaP/mL×h. For the same molecule, the AUC in data set [1] (setting [4]) turned out to be 3.40 ± 3.83 fg BaP/mL×h. Further, in data set [1] (setting [5]), the “AUC(0,∞)” value was 0.74 ± 0.82 fg BaP/mL×h, the Cmax is given as 0.66 ± 0.38 fg BaP/mL, the T1/2 came to 1.40 ± 0.49 h and the Tmax was 2.0 ± 0.7 h. In addition, in data set [1] (setting [6]), the “AUC(0,∞)” value is on record as 3.40 ± 3.83 fg BaP/mL×h, the Cmax is listed as 2.32 ± 2.36 fg BaP/mL, the T1/2 is on record as 1.33 ± 0.39 h and the Tmax turned out to be 1.4 ± 0.7 h.
For the molecule `c1ccc2c(c1)ccc1ccccc12` [Phe, phenanthrene], affinity at human CYP1A2 was put at a Ki of 12.6 µM. For the same molecule, on human CYP1A2 (Lineweaver-Burk plot), the “type of inhibition of hCYP1A2” value is on record as “competitive”.
`Cc1cccc2c1ccc1cc(C(C)C)ccc12` [Retene, 7-isopropyl-1-methylphenanthrene]: the mutagenicity result in data set [2] was “negative”.
In the case of `c1ccc2c(c1)cc1ccc3cccc4ccc2c1c34` [[^14C]-BaP, benzo[a]pyrene], in data set [1] (both, human, in vivo), the Cl was 3707 ± 2267 L/h and the Vd – broadly, the apparent volume that relates the amount in the body to the concentration in plasma or blood – came out at 17550 ± 9725 L. For the same molecule, the half-life (usually the time in which the quantity being followed falls by half) in data set [1] (both, human, in vivo, T1/2) was 4.78 ± 4.45 h. In addition, in data set [1] (both, human, in vivo, Tmax), the Tmax was found to be 1.1 ± 1.1 h. The molecule also gave a half-life in data set [1] (both, human, in vivo, po, T1/2 in blood) of 1.1 ± 1.1 h. In data set [1] (human, in vivo), the AUC turned out to be 17.88 ± 9.56 fg BaP/mL×h and the “AUC(0,∞)” value turned out to be 17.88 ± 9.56 fg BaP/mL×h.

The values above are taken from paper PMC10782561 (Chemico-biological interactions, 2023).
